According to US20120138147A1, “PHOTOELECTRIC CONVERSION ELEMENT, MANUFACTURING METHOD OF THE SAME AND ELECTRONIC EQUIPMENT” (Sony Corporation, priority 2010, published 2012):

assay: physchem
Description: Here, Ka is the dissociation equilibrium constant of a conjugate acid in water. This additive is typically a pyridine-based additive or an additive having a heterocycle. […] However, the pyridine-based additives are not limited thereto. On the other hand, among specific examples of additives having a heterocycle are N-methylimidazole(MIm), 2,4-lutidine(24-Lu), 2,5-lutidine(25-Lu), 2,6-lutidine(26-Lu), 3,4-lutidine(34-Lu) and 3,5-lutidine(35-Lu). However, the additives having a heterocycle are not limited thereto.

Row | pKa (water) | pKa | Compound
1 | 3.28 | – | COc1ccccn1 [2-MeO—Py]
2 | 2.84 | – | Brc1cccnc1 [3-Br—Py]
3 | 3.13 | – | COC(=O)c1cccnc1 [3-COOMe—Py]
4 | 4.88 | – | COc1cccnc1 [3-MeO—Py]
5 | – | 6.04 | CCc1ccncc1 [4-Et—Py, 4-ethylpyridine]
6 | 6.62 | 6.62 | COc1ccncc1 [4-MeO—py, 4-methoxypyridine]
7 | 6.03 | – | Cc1ccncc1 [4-pic]
8 | – | 6.72 | Cc1ccnc(C)c1 [24-Lu, 2,4-lutidine]
9 | – | 6.47 | Cc1ccc(C)nc1 [25-Lu, 2,5-lutidine]
10 | 6.77 | 6.77 | Cc1cccc(C)n1 [26-Lu, 2,6-lutidine]
11 | – | 6.52 | Cc1ccncc1C [34-Lu, 3,4-lutidine]
12 | – | 6.14 | Cc1cncc(C)c1 [35-Lu, 3,5-lutidine]
13 | – | 7.3 | Cn1ccnc1 [Mlm, N-methylimidazole]
14 | 5.6 | – | Cn1cnc2ccccc21 [NMB]
15 | – | 5.99 | CC(C)(C)c1ccncc1 [TBP, 4-tert-butylpyridine]
16 | 4.42 | – | c1ccc(-c2ccccn2)nc1 [bpy]
17 | – | 5.38 | c1ccc2cnccc2c1 [isoquinoline]
18 | – | 0.6 | c1cnccn1 [pyrazine]
19 | 2.1 | – | Me-pyrazole

Row | Compound | pKa (water) | pKa
20 | N#Cc1ccncc1 [4-CN—Py] | 1.9 | –
21 | CNc1ccncc1 [4-MeNH—Py] | 12.5 | –
22 | Nc1ccncc1 [4-NH2—Py] | 9.17 | –
23 | c1ccc2c(c1)ccc1ncccc12 [56-benzoquinoline] | 5.15 | –
24 | c1ccc2nc3ccccc3cc2c1 [acridine] | – | 5.6
25 | c1ccnnc1 [pyridazine] | – | 2.1
26 | c1ccc2ncccc2c1 [quinoline] | – | 4.97
